According to US11802258B2, “Perfume precursor” (TAKASAGO INTERNATIONAL CORPORATION, priority 2017, dated 2023):

Legend:
[1] = tested on: lipase preparation AY “Amano” 30SD; experiment: Lipase-induced scent emission test, lipase preparation AY “Amano” 30SD; format: biochemical; conditions: GC/MS head space peak area of scent-emitting compound minus water control; 10 mg fragrance precursor + 1 g aqueous 1% lipase preparation solution
Procedure: (§1) 10 mg of a fragrance precursor and 1 g of an aqueous 1% lipase preparation solution were put in a vial bottle and mixed and after hermetically sealing the bottle, the mixture was subjected to GC/MS analysis of the head space component to obtain a peak area of the scent-emitting compound. As a control, water was used in place of the aqueous 1% lipase preparation solution, and a peak area of the control was obtained by the same method. The scent emission amount was determined from the difference between the obtained peak area of the scent-emitting compound and the peak area of the control.
(§2) (GC/MS Measurement Conditions)
(§3) Measurement instrument: 7890GC/5975M (manufactured by Agilent Technologies) • Column: BC-WAX50 m×0.25 mm I.D. • Temperature rise: 70° C. to 220° C., 4° C./min • Split ratio: 60:1

[2] = tested on: Staphylococcus aureus NBRC12732; experiment: Scent emission test by microorganism, Staphylococcus aureus; format: cell-based; conditions: GC/MS head space peak area minus control culture; 10 mg fragrance precursor in 3 mL culture solution, 30° C., 20 hours
Procedure: (§4) Culture of Staphylococcus aureus strain NBRC12732, Corynebacterium xerosis strain JCM1324, Pseudomonas aeruginosa strain NBRC13275, and Moraxella osloensis strain ATCC19976:
(§5) After inoculating each of bacteria in Muller-Hinton liquid medium, shaking culture was performed at 30° C. for 20 hours, and 3 mL of the resulting preculture solution was transferred to a vial bottle. 10 mg of each of the fragrance precursors was mixed therewith and after hermetical sealing, shaking culture was further performed at 30° C. for 20 hours.
(§6) A peak area of the scent-emitting compound was obtained by performing GC/MS analysis of the head space component included in the vial bottle containing 3 mL of a microorganism culture solution in which 10 mg of the fragrance precursor was mixed. A microorganism culture solution having not mixed therein the fragrance precursor was used as the control, and a peak area of the control was obtained by the same method. The scent emission amount was determined from the difference between the obtained peak area of the scent-emitting compound and the peak area of the control.
(§7) Measurement instrument: 7890GC/5975MSD (manufactured by Agilent Technologies) • Column: BC-WAX 50 m×0.25 mm I.D. • Temperature rise: 70° C. to 220° C., 4° C./min • Split ratio: splitless

[3] = target: T1, lipase preparation Lipex 100 L (Thermomyces lanuginosus, UniProt O59952, N255R/T253R); experiment: Lipase-induced scent emission test, lipase preparation Lipex 100 L; format: biochemical; conditions: for Scent Emission Amount: GC/MS head space peak area of scent-emitting compound minus water control, 10 mg fragrance precursor + 1 g aqueous 1% lipase preparation solution; for Scent-Emitting Compound: compound released, GC/MS of head space
T1 construct: purchased Novozymes Lipex 100 L
Procedure: as §1, §2, §3

[4] = tested on: Moraxella osloensis ATCC19976; experiment: Scent emission test by microorganism, Moraxella osloensis; format: cell-based; conditions: GC/MS head space peak area minus control culture; 10 mg fragrance precursor in 3 mL culture solution, 30° C., 20 hours
Procedure: as §4, §5, §6, §7

[5] = tested on: Propionibacterium acnes JCM6473; experiment: Scent emission test by microorganism, Propionibacterium acnes; format: cell-based; conditions: GC/MS head space peak area minus control culture; 10 mg fragrance precursor in 3 mL culture solution, static culture 28° C., 3 days
Procedure: Culture of Propionibacterium acnes Strain JCM6473:
(§8) After inoculating the bacterium in GAM bouillon liquid medium containing Hemin 0.5 ppm and Menadione 0.5 ppm, static culture was performed at 28° C. for 3 days under anaerobic conditions, and 3 mL of the resulting preculture solution was transferred to a vial bottle. 10 mg of each of the fragrance precursors was mixed therewith and after hermetical sealing, static culture was further performed at 28° C. for 3 days.
as §6, §7

[6] = tested on: Malassezia furfur NBRC0656; experiment: Scent emission test by microorganism, Malassezia furfur; format: cell-based; conditions: GC/MS head space peak area minus control culture; 10 mg fragrance precursor in 3 mL culture solution, static culture 28° C., 3 days
Procedure: Culture of Malassezia furfur Strain NBRC0656:
as §8, with “Sabouraud” for “GAM bouillon”, “0.1% Tween 80,” for “Hemin 0.5 ppm and Menadione 0.5 ppm,”, “of” for “of each of”, “precursor” for “precursors”
as §6, §7

[7] = tested on: Pseudomonas aeruginosa NBRC13275; experiment: Scent emission test by microorganism, Pseudomonas aeruginosa; format: cell-based; conditions: GC/MS head space peak area minus control culture; 10 mg fragrance precursor in 3 mL culture solution, 30° C., 20 hours
Procedure: as §4, §5, §6, §7

[8] = tested on: Corynebacterium xerosis JCM1324; experiment: Scent emission test by microorganism, Corynebacterium xerosis; format: cell-based; conditions: GC/MS head space peak area minus control culture; 10 mg fragrance precursor in 3 mL culture solution, 30° C., 20 hours
Procedure: as §4, §5, §6, §7

T1 sequence (O59952 23-291 T253R/N255R): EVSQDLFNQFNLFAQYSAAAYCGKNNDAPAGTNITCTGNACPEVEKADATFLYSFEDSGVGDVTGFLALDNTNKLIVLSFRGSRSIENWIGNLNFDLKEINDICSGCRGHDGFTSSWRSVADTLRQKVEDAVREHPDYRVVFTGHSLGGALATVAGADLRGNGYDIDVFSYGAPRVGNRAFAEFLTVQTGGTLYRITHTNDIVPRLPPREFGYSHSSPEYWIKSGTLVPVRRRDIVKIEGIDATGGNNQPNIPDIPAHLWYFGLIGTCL

For `CC/C=C\CCOC(=O)c1ccccc1O` [(Z)-3-hexenyl salicylate], the “Scent Emission Amount” value [1] was 16,933,990 and the “Scent Emission Amount” value [2] was 14,126,965.
With `CC(C)=CCC[C@H](C)CCOC(=O)c1ccccc1` [Example 1, 3,7-dimethyl-6-octenyl benzoate] the “Scent Emission Amount” value [3] was 28,098,876 and the “Scent-Emitting Compound” value [3] was “citronellol”.
In the case of `CCCC(CC[C@@H]1[C@@H](C)CCCC1(C)C)OC(=O)c1ccc(OC)cc1` (stereo partly drawn) [Example 3, 1-((R,6S)-2,2,6-trimethylcyclohexyl)-3-hexanyl Anisate], the “Scent Emission Amount” value [1] is reported as 40,373,157 and the “Scent Emission Amount” value [3] is reported as 40,430,750.
For `CC(C)[C@@H]1CC[C@@H](C)C[C@H]1OC(=O)c1ccccc1` [Example 6, (1R,2S,5R)-isopropyl-5-methylcyclohexyl benzoate], the “Scent Emission Amount” value [1] was 82,023,336.
In the case of `CC(C)=CCC/C(C)=C/CC[C@H](C)CCOC(=O)c1ccccc1` [Example 7, (S,E)-3,7,11-trimethyl-6,10-dodecadienyl Benzoate], the “Scent Emission Amount” value [1] is reported as 88,986,381.
For `COc1ccc(C(=O)OCC[C@@H](C)CC/C=C(\C)CCC=C(C)C)cc1` [Example 8, (S,E)-3,7,11-trimethyl-6,10-dodecadienyl Anisate], the “Scent Emission Amount” value [1] was 23,338,647.
`CC(C)=CCC/C(C)=C/CC[C@H](C)CCOC(=O)/C=C/c1ccccc1` [Example 10, (S,E)-3,7,11-trimethyl-6,10-dodecadienyl Cinnamate] was tested, and the “Scent Emission Amount” value [3] was 19,967,420 and the “Scent-Emitting Compound” value [3] was “dihydrofarnesol”.
`CC/C=C\CCOC(=O)c1ccccc1` [Example 11, (Z)-3-hexenyl Benzoate] was tested, and the “Scent Emission Amount” value [1] was 49,663,459.
With `C=CCc1ccc(OC(=O)c2ccccc2)c(OC)c1` [Example 12, 4-allyl-2-methoxyphenyl benzoate] the “Scent Emission Amount” value [3] was 164,744,420 and the “Scent-Emitting Compound” value [3] was “eugenol”.
For `COc1cc(C=O)ccc1OC(=O)c1ccccc1` [Example 13, 4-formyl-2-methoxyphenyl Benzoate], the “Scent Emission Amount” value [3] was 47,188,750 and the “Scent-Emitting Compound” value [3] was “vanillin”.
`C=CCCCCCCCCOC(=O)c1ccccc1` [Example 14, 9-decenyl Benzoate] was tested, and the “Scent Emission Amount” value [4] was 86,274,718, the “Scent Emission Amount” value [5] was 133,440,692 and the “Scent Emission Amount” value [6] was 304,030,021.
`O=C(C=Cc1ccccc1)OCC=Cc1ccccc1` [cinnamyl cinnamate] was tested, and the “Scent Emission Amount” value [1] was 24,711,289.
`CC(C)=CCCC(C)CCOC(=O)Cc1ccccc1` (stereo not drawn) [citronellyl phenylacetate] was tested, and the “Scent Emission Amount” value [4] was 500,940,481, the “Scent Emission Amount” value [5] was 292,401,763 and the “Scent Emission Amount” value [7] was 150,385,642. The “Scent Emission Amount” value [6] was 369,118,269.
`CC(C)=CCC/C(C)=C/COC(=O)c1ccccc1` [geranyl benzoate] was tested, and the “Scent Emission Amount” value [1] was 78,461,812, the “Scent Emission Amount” value [2] was 839,961,157 and the “Scent Emission Amount” value [5] was 105,061,217. The “Scent Emission Amount” value [7] was 117,161,311 and the “Scent Emission Amount” value [6] was 121,633,184.
`CC(C)=CCC/C(C)=C/COC(=O)Cc1ccccc1` [geranyl phenylacetate] was tested, and the “Scent Emission Amount” value [1] was 54,842,763 and the “Scent Emission Amount” value [8] was 39,033,900.
For `O=C(OCCc1ccccc1)c1ccccc1` [phenylethyl benzoate], the “Scent Emission Amount” value [1] was 96,460,830.
For `O=C(C=Cc1ccccc1)OCCc1ccccc1` [phenylethyl cinnamate], the “Scent Emission Amount” value [1] was 22,892,002, the “Scent Emission Amount” value [2] was 144,750,281 and the “Scent Emission Amount” value [5] was 112,497,882. The “Scent Emission Amount” value [7] was 247,508,719 and the “Scent Emission Amount” value [6] was 351,450,490.
For `O=C(Cc1ccccc1)OCCc1ccccc1` [phenylethyl phenylacetate], the “Scent Emission Amount” value [1] was 50,855,859.
For `C=C(C)CCC[C@H](C)CCOC(=O)Cc1ccccc1` [rosinyl phenylacetate], the “Scent Emission Amount” value [1] was 56,492,946.
